# Results published in patent US11884675B2, “Heterocyclic compounds as triggering receptor expressed on myeloid cells 2 agonists and methods of use” (AMGEN INC., priority 2020, dated 2024).
# Marks after values point to notes of the source that are not given here.
# Tests used:
# [1] = system: hTREM2-CV knock-in transgenic mice; experiment: IP-10 and CCL2 expression in brain and plasma of mice after acute dosing (TREM2 target engagement, MSD V-PLEX); assay type: in vivo, mouse; conditions: 24 hours
# Method: IP-10 expression in the brain and plasma of mice after administration of Example 192 and a TREM2 agonist antibody
# To test TREM2 target engagement in an acute dosing paradigm using the compound of Example 192 (5-(4-chloro-2-fluorophenyl)-2,3-dimethyl-7-((2R,4S)-2-(1-methyl-1H-pyrazol-4-yl) tetrahydro-2H-pyran-4-yl)pyrido[3,4-b]pyrazine), hTREM2-CV knock-in transgenic mice were dosed using oral gavage (PO) twice a day (0 and 10 h) followed by sample collection at 24 hours. 6 animals received the compound of Example 192 at 50 mg/kg, and 6 animals received vehicle only (2% Hydroxypropyl Methylcellulose, 1% Tween-80 in PBS). In the same experiment, an anti-hTREM2 Antibody Ab-1 was dosed intraperitoneally (IP) at 100 mg/kg (control was a non-binding matched IgG isotype control). Ab-1 is a murinized version of a human TREM2 agonist antibody, first described as an engineered variant of antibody 13E7 in PCT Application Publication WO2018/195506A1. Ab-1 has an HC according to SEQ ID NO:9, an LC according to SEQ ID NO:10, and exemplifies an anti-TREM2 antibody having the CDRs according to SEQ ID NOS:1-6. Twenty-four hours following the zero-hour dose, mice were humanely euthanized for blood collection prior to cardiac perfusion with PBS and brain harvest. Brains were micro dissected into right and left regions of interest (including the cortex and hippocampus) for independent processing of cytokine and mRNA expression profiles. Whole blood was collected into EDTA-containing vials to prevent coagulation, and centrifuged to isolate the plasma fraction before storage at −80° C. Right and left hemisphere cortices were flash frozen in liquid nitrogen and stored at −80° C. before lysis and homogenization.
# Plasma and brain lysates were analyzed for IP-10 (CXCL10) and CCL2 (MCP1) expression using a Meso Scale Discovery (MSD) multi-array reader and V-PLEX kits per manufacturer's protocols.
# The upregulation of IP-10 was more robust, and so IP-10 levels were analyzed in plasma from the same experiment.
# [2] = system: hTREM2-CV knock-in transgenic mice; experiment: Nanostring nCounter Murine Neuroinflammation panel, Cell Type Profiling scores in hippocampi; assay type: in vivo, mouse
# Method: (§1) Nanostring analysis of gene expression profiles after administration of Example 192 and a TREM2 agonist antibody in a mouse model
# (§2) To assess the impact of TREM2 agonism on cellular processes and pathways, the right hemisphere hippocampi from the acute dosing of the compound of Example 192 and […] Ab-1, as described in Example A3, were analyzed for gene expression changes. Cells from frozen hippocampi were lysed, and RNA was isolated. Key gene expression profiles were analyzed using the nCounter Murine Neuroinflammation panel of 770 genes related to inflammation in the CNS. Results of individual gene expression changes relative to the mean of several housekeeper genes were grouped in pathways of interest and assigned a relative score using the nSolver analysis software.
# (§3) Nanostring nSolver software includes a module for Cell Type Profiling that identifies genes linked to cell type in an experiment. […] Pathway analysis was also performed. Genes associated with the adaptive immune response, innate immune response, microglia function, cytokine signalling, and cell cycle were all increased in hippocampi from animals treated with the compound of Example 192 and Ab-1. Table 22 reports the effects of the compound of Example 192 and Ab-1 on these genes, where the values reflect PC1 scores from principal component analysis of the gene set.
# [3] = system: hTREM2-CV knock-in transgenic mice; experiment: Nanostring nCounter Murine Neuroinflammation panel, pathway analysis (PC1 scores) in hippocampi; assay type: in vivo, mouse
# Method: as §1, §2, §3
# hTREM2 [4] = biological target: T1, hTREM2 (Homo sapiens, UniProt Q9NZC2); experiment: TREM2 activity by cellular Syk phosphorylation (AlphaScreen/AlphaLISA) in TREM2/DAP12-HEK cells, used for Examples 1-305; assay type: cell-based; parameters: expressed in transfected cells; conditions: HEK293 Cells
# T1 sequence (Q9NZC2 19-230): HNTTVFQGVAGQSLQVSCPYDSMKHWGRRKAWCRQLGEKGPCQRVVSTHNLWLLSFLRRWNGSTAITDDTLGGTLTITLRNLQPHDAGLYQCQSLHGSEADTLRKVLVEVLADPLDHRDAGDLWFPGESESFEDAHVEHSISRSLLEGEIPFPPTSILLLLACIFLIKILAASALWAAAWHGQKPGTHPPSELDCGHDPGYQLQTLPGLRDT
# T1 sequence (O43914 22-113 partner): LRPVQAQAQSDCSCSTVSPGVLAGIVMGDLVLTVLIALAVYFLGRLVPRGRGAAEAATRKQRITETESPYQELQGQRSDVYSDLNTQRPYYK
# How it was run: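 Phospho-Syk (Tyr525/526) over total Syk quantified by AlphaScreen in lysates of cloned TREM2/DAP12-overexpressing HEK293 cells after 45 min compound treatment at room temperature, 1% final DMSO. Values expressed relative to 100 nM anti-TREM2 antibody (positive) and isotype IgG (negative) controls; curves fitted with 4-parameter logistic model.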
# hTREM2 [5] = biological target: T1, hTREM2; experiment: TREM2 agonist potency by Syk phosphorylation (AlphaLisa) in HEK293T-hTREM2 cells, used for Examples 306-429; assay type: cell-based; parameters: expressed in transfected cells; host or cells: HEK293T (HEK293T-hTREM2 cells); conditions: HEK293 Cells
# How it was run: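 HEK293T cells expressing human TREM2 and DAP12, plated 20-24 h before, were exposed to compounds for 45 min at room temperature, then lysed. Phospho-Syk read by AlphaLisa; % activation from a standard curve and EC50 from a four-parameter log(agonist) fit.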
# [6] = Example 192 50 mg/kg PO at 0 and 10 h, Ab-1 100 mg/kg IP, compared to vehicle-treated animals
# [7] = hippocampi after acute dosing, mean score (standard deviation)
# [8] = right hemisphere hippocampi, acute dosing as in Example A3
# [9] = PC1 score, mean score (standard deviation)
smiles,measurement,setting,value
"Cc1nc2cc([C@H]3CCO[C@@H](c4cnn(C)c4)C3)nc(-c3ccc(Cl)cc3F)c2nc1C (single isomer, unassigned) [Example 192]",peripheral IP-10 levels in the plasma fraction,[1]; 50 mg/kg PO at 0 and 10 h,no apparent cytokine upregulation
same,CCL2 (MCP1) in cortical lysates,[1]; [6],induced upregulation
same,IP-10 (CXCL10) in cortical lysates,[1]; [6],induced upregulation
same,Microglia Score (Cell Type Profiling),[2]; [7],6.82 (0.090) *
same,astrocyte score (Cell Type Profiling),[2]; [7],8.86 (0.077)
same,neuron score (Cell Type Profiling),[2]; [7],8.81 (0.185)
same,astrocyte score (Cell Type Profiling),[2]; [8],no change
same,"microglia score (Cell Type Profiling, microglial-associated genes)",[2]; [8],increase
same,neuron score (Cell Type Profiling),[2]; [8],no change
same,Pathway Score Adaptive Immune Response,[3]; [9],0.639 (0.929) *
same,Pathway Score Cell Cycle,[3]; [9],0.398 (0.414) *
same,Pathway Score Cytokine Signaling,[3]; [9],0.180 (0.514) *
same,Pathway Score Innate Immune Response,[3]; [9],0.490 (0.674) *
same,Pathway Score Microglia Function,[3]; [9],0.345 (0.908) *
same,genes associated with cell cycle,[3]; acute dosing as in Example A3,increased
same,genes associated with cytokine signalling,[3]; acute dosing as in Example A3,increased
same,genes associated with microglia function,[3]; acute dosing as in Example A3,increased
same,genes associated with the adaptive immune response,[3]; acute dosing as in Example A3,increased
same,genes associated with the innate immune response,[3]; acute dosing as in Example A3,increased
same,EC50,hTREM2 [4],≤ 50 nM
same,hTREM2 Emax,hTREM2 [4],++++ (Emax>250)
"Cc1nc2nc([C@@H]3CCO[C@@H](c4cnn(C5CC5)c4)C3)nc(C34CC(C(F)(F)F)(C3)C4)c2nc1C (stereo in doubt) [Example 365, 2-(2-(1-cyclopropyl-1H-pyrazol-4-yl)tetrahydro-2H-pyran-4-yl)-6,7-dimethyl-4-(3-(trifluoromethyl)bicyclo[1.1.1]pentan-1-yl)pteridine]",EC50,hTREM2 [5],50 to 500 nM
"Cc1cc([C@H]2C[C@@H](c3nc(-c4ccc(F)cc4F)c4ccc(C)nc4n3)CCO2)ccn1 (racemic) [Example 323, 4-(2,4-difluorophenyl)-7-methyl-2-(2-(2-methylpyridin-4-yl)tetrahydro-2H-pyran-4-yl)pyrido[2,3-d]pyrimidine]",EC50,hTREM2 [5],≤ 50 nM
"COc1cc(C2CN(c3nc(-c4ccc(Cl)cc4F)c4nc(C)c(C)nc4n3)CCO2)ccn1 (stereo not drawn) [Example 314, 4-(4-(4-chloro-2-fluorophenyl)-6,7-dimethylpteridin-2-yl)-2-(2-methoxypyridin-4-yl)morpholine]",EC50,hTREM2 [5],≤ 50 nM
"Cc1nc2nc(N3C[C@@H](C)O[C@@H](c4cnn(C5CC5)c4)C3)nc(-c3ccc(Cl)cc3F)c2nc1C (racemic) [Example 373, 4-(4-(4-chloro-2-fluorophenyl)-6,7-dimethylpteridin-2-yl)-2-(1-cyclopropyl-1H-pyrazol-4-yl)-6-methylmorpholine]",EC50,hTREM2 [5],≤ 50 nM
"Cc1cc(C2CN(c3cc4nc(C)cnc4c(-c4ccc(C(F)(F)F)nc4)n3)CCO2)ccn1 (stereo not drawn) [Example 311, 4-(2-methyl-5-(6-(trifluoromethyl)pyridin-3-yl)pyrido[3,4-b]pyrazin-7-yl)-2-(2-methylpyridin-4-yl)morpholine]",EC50,hTREM2 [5],50 to 500 nM
"Cc1nc2nc(N3C[C@H](C)O[C@@H](c4cnn(C5CC5)c4)C3)nc(C34CC(C(F)(F)F)(C3)C4)c2nc1C [Example 408, (2S,6S)-2-(1-cyclopropyl-1H-pyrazol-4-yl)-4-(6,7-dimethyl-4-(3-(trifluoromethyl)bicyclo[1.1.1]pentan-1-yl)pteridin-2-yl)-6-methylmorpholine]",EC50,hTREM2 [5],≤ 50 nM
"Cc1nc2nc([C@@H]3CCO[C@@H](c4cnn(C5CC5)c4)C3)nc(-c3ccc(C(F)(F)F)cc3F)c2nc1C [Example 412, 2-((2R,4R)-2-(1-cyclopropyl-1H-pyrazol-4-yl)tetrahydro-2H-pyran-4-yl)-4-(2-fluoro-4-(trifluoromethyl)phenyl)-6,7-dimethylpteridine]",EC50,hTREM2 [5],50 to 500 nM
"Cc1cc([C@H]2C[C@@H](c3cc4nc(C)cnc4c(-c4ccc(C(F)(F)F)nc4)n3)CCO2)ccn1 (racemic) [Example 308, 2-methyl-7-(2-(2-methylpyridin-4-yl)tetrahydro-2H-pyran-4-yl)-5-(6-(trifluoromethyl)pyridin-3-yl)pyrido[3,4-b]pyrazine]",EC50,hTREM2 [5],50 to 500 nM
"COc1cc([C@@H]2CN(c3nc(-c4ccc(Cl)cc4F)c4nc(C)c(C)nc4n3)CCO2)ccn1 [Example 336, (R)-4-(4-(4-chloro-2-fluorophenyl)-6,7-dimethylpteridin-2-yl)-2-(2-methoxypyridin-4-yl)morpholine]",EC50,hTREM2 [5],50 to 500 nM
"Cc1ccc2c(-c3ccc(Cl)cc3F)nc([C@H]3C[C@@H](C)O[C@@H](c4cnn(C5CC5)c4)C3)nc2n1 [Example 414, 4-(4-chloro-2-fluorophenyl)-2-((2R,4S,6R)-2-(1-cyclopropyl-1H-pyrazol-4-yl)-6-methyltetrahydro-2H-pyran-4-yl)-7-methylpyrido[2,3-d]pyrimidine]",EC50,hTREM2 [5],≤ 50 nM
"Cc1cnc2c(C34CC(C(F)(F)F)(C3)C4)nc(N3C[C@H](C)O[C@@H](c4cnn(C5CC5)c4)C3)nc2n1 [Example 404, (2S,6S)-2-(1-cyclopropyl-1H-pyrazol-4-yl)-6-methyl-4-(7-methyl-4-(3-(trifluoromethyl)bicyclo[1.1.1]pentan-1-yl)pteridin-2-yl)morpholine]",EC50,hTREM2 [5],≤ 50 nM
"Cc1cc(C2CN(c3cc4nc(C)cnc4c(C45CC(C(F)(F)F)(C4)C5)n3)CCO2)ccn1 (stereo not drawn) [Example 376, 2-(2-methyl-4-pyridyl)-4-[2-methyl-5-[3-(trifluoromethyl)-1-bicyclo[1.1.1]pentanyl]pyrido[3,4-b]pyrazin-7-yl]morpholine]",EC50,hTREM2 [5],500 to 3000 nM
"Cc1cnc2c(C34CC(C(F)(F)F)(C3)C4)nc(N3C[C@@H](C)O[C@@H](c4cnn(C5CC5)c4)C3)cc2n1 (racemic) [Example 377, 2-(1-cyclopropylpyrazol-4-yl)-6-methyl-4-[2-methyl-5-[3-(trifluoromethyl)-1-bicyclo[1.1.1]pentanyl]pyrido[3,4-b]pyrazin-7-yl]morpholine]",EC50,hTREM2 [5],50 to 500 nM
"Cc1nc2nc(N3C[C@@H](C)O[C@@H](c4cnn(C5CC5)c4)C3)nc(C34CC(C(F)(F)F)(C3)C4)c2nc1C [Example 411, (2S,6R)-2-(1-cyclopropyl-1H-pyrazol-4-yl)-4-(6,7-dimethyl-4-(3-(trifluoromethyl)bicyclo[1.1.1]pentan-1-yl)pteridin-2-yl)-6-methylmorpholine]",EC50,hTREM2 [5],≤ 50 nM
"Cc1nc2cc([C@H]3CCO[C@@H](c4cnn(C5CC5)c4)C3)nc(-c3ccc(F)cc3F)c2nc1C (racemic) [Example 393, 7-[2-(1-cyclopropylpyrazol-4-yl)tetrahydropyran-4-yl]-5-(2,4-difluorophenyl)-2,3-dimethyl-pyrido[3,4-b]pyrazine]",EC50,hTREM2 [5],50 to 500 nM
